Measurements taken from US20240197695A1, “COMPOUND FOR PREVENTION OR TREATMENT OF KIDNEY DISEASE” (ONCOCROSS CO.,LTD, priority 2021, published 2024).
Marks after values point to notes of the source that are not given here.

Legend:
Format in all cases: in vivo, mice (C57BL/6)
[1] = Drinking water intake of mice in diabetic nephrosis model; set-up: unit not given here
Description: (§1) STZ (Sigma-aldrich, S0130, 40 mg/kg b.w., in 0.1 M citrate buffer pH 4.5) was intraperitoneally administered to 9-week-old male mice (C57BL/6) once/1 day for 5 days to perform a first disease induction. After 7 weeks of the first induction, a second induction was performed using the same method as the first induction. For 5 days of an STZ administration period for the first induction, 10% sucrose was administered as drinking water. In addition, after 14 days of the second administration, blood glucose levels were confirmed to confirm the induction rate, and the induced animals were separated into groups. Experimental substances (R)-4-{(R)-1-[7-(3,4,5-trimethoxy-phenyl)-[1,6] naphthyridin-5-yloxy]-ethyl}pyrrolidin-2-one (BI-1002494) and cromolyn (OC-101) were administered orally into the stomach at 10 mL/kg using an administration syringe (sonde) before 16:00 daily for 12 weeks at a frequency of 7 days/week at doses shown in Table 1 below, and dexamethasone was orally administered as a positive control substance.

[2] = system: diabetic nephrosis animal models; assay: Histopathological change (H&E) in liver, kidney, pancreas; conditions: for Kidney: Medullar apoptosis / Kidney: Medullar mineralization / Kidney: NHL / Kidney: bowman's capsule hyperplasia / Kidney: pappillary mineralization / Liver: Apoptosis / Liver: Cytoplasmic glycogen / Liver: Eosinophlic focus of cellular alteration / Liver: Mononuclear cell infiltrate / Liver: NHL / Pancrease: Apoptosis / Pancrease: NHL / Pancrease: islet degeneration / Pancrease: islet hypertrophy / Pancrease: islet, mononuclear cell infillitrate: count in group of 10 animals
Description: as §1
At the end of the observation period, the mice in each group of Example 1 were confirmed to be dead, and the liver, kidney, and pancreas were extracted and fixed with 10% neutral buffered formalin (NBF) in at least 20 times the tissue volume. The fixed tissue was sectioned to a thickness of approximately 4 mm and then produced into a paraffin block through general tissue processing and embedding processes. Thereafter, the tissue was sectioned to a thickness of 4 μm using a rotary microtome, and then H&E staining was performed, and histopathological changes were observed.

[3] = Feed intake of mice in diabetic nephrosis model; set-up: Feed intake, Mean: unit not given here
Description: as §1

[4] = administered group (12.5, 25, 50 mg/kg)

COc1cc(-c2cc3ncccc3c(O[C@H](C)[C@H]3CNC(=O)C3)n2)cc(OC)c1OC [BI-1002494, (R)-4-{(R)-1-[7-(3,4,5-trimethoxy-phenyl)-[1,6]naphthyridin-5-yloxy]-ethyl}pyrrolidin-2-one]
Drinking water intake, Mean ([1]; 12.5 mg/kg/day oral, week 0): 7.80
Drinking water intake, Mean ([1]; 12.5 mg/kg/day oral, week 1): 7.91
Drinking water intake, Mean ([1]; 12.5 mg/kg/day oral, week 2): 7.41
Drinking water intake, Mean ([1]; 12.5 mg/kg/day oral, week 3): 7.39
Drinking water intake, Mean ([1]; 12.5 mg/kg/day oral, week 4): 7.38
Drinking water intake, Mean ([1]; 12.5 mg/kg/day oral, week 5): 7.16
Drinking water intake, Mean ([1]; 12.5 mg/kg/day oral, week 6): 7.34
Drinking water intake, Mean ([1]; 12.5 mg/kg/day oral, week 7): 7.24
Drinking water intake, Mean ([1]; 12.5 mg/kg/day oral, week 8): 6.99
Drinking water intake, Mean ([1]; 12.5 mg/kg/day oral, week 9): 7.40
Drinking water intake, Mean ([1]; 12.5 mg/kg/day oral, week 10): 7.46
Drinking water intake, Mean ([1]; 25 mg/kg/day oral, week 0): 7.07
Drinking water intake, Mean ([1]; 25 mg/kg/day oral, week 1): 7.62
Drinking water intake, Mean ([1]; 25 mg/kg/day oral, week 2): 7.86
Drinking water intake, Mean ([1]; 25 mg/kg/day oral, week 3): 7.38
Drinking water intake, Mean ([1]; 25 mg/kg/day oral, week 4): 6.73
Drinking water intake, Mean ([1]; 25 mg/kg/day oral, week 5): 7.19
Drinking water intake, Mean ([1]; 25 mg/kg/day oral, week 6): 7.34
Drinking water intake, Mean ([1]; 25 mg/kg/day oral, week 7): 7.69
Drinking water intake, Mean ([1]; 25 mg/kg/day oral, week 8): 7.43
Drinking water intake, Mean ([1]; 25 mg/kg/day oral, week 9): 7.54
Drinking water intake, Mean ([1]; 25 mg/kg/day oral, week 10): 7.15
Drinking water intake, Mean ([1]; 50 mg/kg/day oral, week 0): 7.27
Drinking water intake, Mean ([1]; 50 mg/kg/day oral, week 1): 7.04
Drinking water intake, Mean ([1]; 50 mg/kg/day oral, week 2): 6.07
Drinking water intake, Mean ([1]; 50 mg/kg/day oral, week 3): 6.96
Drinking water intake, Mean ([1]; 50 mg/kg/day oral, week 4): 7.13
Drinking water intake, Mean ([1]; 50 mg/kg/day oral, week 5): 6.48
Drinking water intake, Mean ([1]; 50 mg/kg/day oral, week 6): 6.93
Drinking water intake, Mean ([1]; 50 mg/kg/day oral, week 7): 6.39
Drinking water intake, Mean ([1]; 50 mg/kg/day oral, week 8): 6.91
Drinking water intake, Mean ([1]; 50 mg/kg/day oral, week 9): 6.61
Drinking water intake, Mean ([1]; 50 mg/kg/day oral, week 10): 6.22
Kidney: Medullar apoptosis ([2]; G4, 12.5 mg/kg oral): 3
Kidney: Medullar mineralization ([2]; G4, 12.5 mg/kg oral): 0
Kidney: NHL ([2]; G4, 12.5 mg/kg oral): 7
Kidney: bowman's capsule hyperplasia ([2]; G4, 12.5 mg/kg oral): 0
Kidney: pappillary mineralization ([2]; G4, 12.5 mg/kg oral): 0
Liver: Apoptosis ([2]; G4, 12.5 mg/kg oral): 2
Liver: Cytoplasmic glycogen ([2]; G4, 12.5 mg/kg oral): 1
Liver: Eosinophlic focus of cellular alteration ([2]; G4, 12.5 mg/kg oral): 0
Liver: Mononuclear cell infiltrate ([2]; G4, 12.5 mg/kg oral): 1
Liver: NHL ([2]; G4, 12.5 mg/kg oral): 7
Pancrease: Apoptosis ([2]; G4, 12.5 mg/kg oral): 1
Pancrease: NHL ([2]; G4, 12.5 mg/kg oral): 5
Pancrease: islet degeneration ([2]; G4, 12.5 mg/kg oral): 2
Pancrease: islet hypertrophy ([2]; G4, 12.5 mg/kg oral): 1
Pancrease: islet, mononuclear cell infillitrate ([2]; G4, 12.5 mg/kg oral): 1
Kidney: Medullar apoptosis ([2]; G5, 25 mg/kg oral): 2
Kidney: Medullar mineralization ([2]; G5, 25 mg/kg oral): 1
Kidney: NHL ([2]; G5, 25 mg/kg oral): 7
Kidney: bowman's capsule hyperplasia ([2]; G5, 25 mg/kg oral): 0
Kidney: pappillary mineralization ([2]; G5, 25 mg/kg oral): 0
Liver: Apoptosis ([2]; G5, 25 mg/kg oral): 3
Liver: Cytoplasmic glycogen ([2]; G5, 25 mg/kg oral): 0
Liver: Eosinophlic focus of cellular alteration ([2]; G5, 25 mg/kg oral): 0
Liver: Mononuclear cell infiltrate ([2]; G5, 25 mg/kg oral): 2
Liver: NHL ([2]; G5, 25 mg/kg oral): 7
Pancrease: Apoptosis ([2]; G5, 25 mg/kg oral): 0
Pancrease: NHL ([2]; G5, 25 mg/kg oral): 8
Pancrease: islet degeneration ([2]; G5, 25 mg/kg oral): 1
Pancrease: islet hypertrophy ([2]; G5, 25 mg/kg oral): 1
Pancrease: islet, mononuclear cell infillitrate ([2]; G5, 25 mg/kg oral): 0
Kidney: Medullar apoptosis ([2]; G6/G7, 50 mg/kg oral): 1
Kidney: Medullar mineralization ([2]; G6/G7, 50 mg/kg oral): 2
Kidney: NHL ([2]; G6/G7, 50 mg/kg oral): 7
Kidney: bowman's capsule hyperplasia ([2]; G6/G7, 50 mg/kg oral): 0
Kidney: pappillary mineralization ([2]; G6/G7, 50 mg/kg oral): 0
Liver: Apoptosis ([2]; G6/G7, 50 mg/kg oral): 2
Liver: Cytoplasmic glycogen ([2]; G6/G7, 50 mg/kg oral): 0
Liver: Eosinophlic focus of cellular alteration ([2]; G6/G7, 50 mg/kg oral): 0
Liver: Mononuclear cell infiltrate ([2]; G6/G7, 50 mg/kg oral): 1
Liver: NHL ([2]; G6/G7, 50 mg/kg oral): 8
Pancrease: Apoptosis ([2]; G6/G7, 50 mg/kg oral): 0
Pancrease: NHL ([2]; G6/G7, 50 mg/kg oral): 7
Pancrease: islet degeneration ([2]; G6/G7, 50 mg/kg oral): 1
Pancrease: islet hypertrophy ([2]; G6/G7, 50 mg/kg oral): 2
Pancrease: islet, mononuclear cell infillitrate ([2]; G6/G7, 50 mg/kg oral): 0
Cytoplasmic glycogen in the liver [2, 4]: reduced in the liver
Medullar apoptosis in the kidney [2, 4]: reduced in the kidney in a dose-dependent manner
Feed intake compared to the disease control group ([3]; 12.5 mg/kg administered group, after week 4 of administration): statistically significantly decreased
Feed intake, Mean ([3]; 12.5 mg/kg/day oral, week 0): 6.97
Feed intake, Mean ([3]; 12.5 mg/kg/day oral, week 1): 5.61
Feed intake, Mean ([3]; 12.5 mg/kg/day oral, week 2): 6.23
Feed intake, Mean ([3]; 12.5 mg/kg/day oral, week 3): 4.58
Feed intake, Mean ([3]; 12.5 mg/kg/day oral, week 4): 5.14^#
Feed intake, Mean ([3]; 12.5 mg/kg/day oral, week 5): 4.98
Feed intake, Mean ([3]; 12.5 mg/kg/day oral, week 6): 5.31
Feed intake, Mean ([3]; 12.5 mg/kg/day oral, week 7): 5.21
Feed intake, Mean ([3]; 12.5 mg/kg/day oral, week 8): 4.26
Feed intake, Mean ([3]; 12.5 mg/kg/day oral, week 9): 4.39
Feed intake, Mean ([3]; 12.5 mg/kg/day oral, week 10): 4.64
Feed intake compared to the disease control group ([3]; 25 mg/kg administered group, after week 6 of administration): statistically significantly decreased
Feed intake, Mean ([3]; 25 mg/kg/day oral, week 0): 6.73
Feed intake, Mean ([3]; 25 mg/kg/day oral, week 1): 5.63
Feed intake, Mean ([3]; 25 mg/kg/day oral, week 2): 5.59
Feed intake, Mean ([3]; 25 mg/kg/day oral, week 3): 5.26
Feed intake, Mean ([3]; 25 mg/kg/day oral, week 4): 4.99
Feed intake, Mean ([3]; 25 mg/kg/day oral, week 5): 5.15
Feed intake, Mean ([3]; 25 mg/kg/day oral, week 6): 5.51^#
Feed intake, Mean ([3]; 25 mg/kg/day oral, week 7): 5.04
Feed intake, Mean ([3]; 25 mg/kg/day oral, week 8): 4.95
Feed intake, Mean ([3]; 25 mg/kg/day oral, week 9): 4.62
Feed intake, Mean ([3]; 25 mg/kg/day oral, week 10): 4.63
Feed intake compared to the disease control group ([3]; 50 mg/kg administered group, after week 8 of administration): statistically significantly decreased
Feed intake, Mean ([3]; 50 mg/kg/day oral, week 0): 5.98
Feed intake, Mean ([3]; 50 mg/kg/day oral, week 1): 5.74
Feed intake, Mean ([3]; 50 mg/kg/day oral, week 2): 4.98
Feed intake, Mean ([3]; 50 mg/kg/day oral, week 3): 5.36
Feed intake, Mean ([3]; 50 mg/kg/day oral, week 4): 5.14
Feed intake, Mean ([3]; 50 mg/kg/day oral, week 5): 4.89
Feed intake, Mean ([3]; 50 mg/kg/day oral, week 6): 5.64
Feed intake, Mean ([3]; 50 mg/kg/day oral, week 7): 5.11
Feed intake, Mean ([3]; 50 mg/kg/day oral, week 8): 4.86^#
Feed intake, Mean ([3]; 50 mg/kg/day oral, week 9): 4.30
Feed intake, Mean ([3]; 50 mg/kg/day oral, week 10): 4.14
